Data taken from patent US9242973B2, “Chromane compounds” (CoMentis, Inc., priority 2012, dated 2016).
pIC50: −log10 of the molar value. Structures can show the parent of a compound that is named as a salt.

Tested on: Aβ production in SK-N-BE(2) neuroblastoma cells
Experiment: Test Example 3: Aβ production inhibition in cell (Aβ40 ELISA, SK-N-BE(2))
Conditions: Homo sapiens, SKNBE2, 6 h, read-out: Test Example 3 IC50

Question: `CC1(C)Oc2ccc(NC(=O)c3ccc(Cl)cn3)cc2C2(COC(N)=N2)C12COC2` (stereo not drawn) [Example 27, N-(2-amino-2′,2′-dimethyldispiro[1,3-oxazole-4,4′-chromene-3′,3″-oxetan]-6′-yl)-5-chloropyridine-2-carboxamide] was tested. Which pIC50 did it give?
Answer: 8.03

Same assay, conditions: Homo sapiens, SKNBE2, 6 h, read-out: Test Example 3 IC50, SK-N-BE(2) cells, 6 hours, Aβ40 ELISA normalized by viability

Question: How did the pIC50 turn out when `C[C@@H]1Oc2ccc(-c3cccnc3F)cc2[C@@]2(COC(N)=N2)C12COC2` (racemic) [RP 79] was run?
Answer: 6.35

Question: With `COc1cncc(-c2ccc3c(c2)[C@@]2(COC(N)=N2)C2(COC2)[C@@H](C)O3)c1` (racemic) [RP 81] as the molecule, how does the pIC50 read?
Answer: 6.29

Question: With `CC1(C)Oc2ccc(-c3cncnc3)cc2C2(COC(N)=N2)C12COC2` (single isomer, unassigned) [RP 51b, 2′,2′-dimethyl-6′-(pyrimidin-5-yl)dispiro[1,3-oxazole-4,4′-chromene-3′,3″-oxetan]-2-amine] as the molecule, how does the pIC50 read?
Answer: 7.14

Question: With `CC#Cc1cncc(-c2ccc3c(c2)C2(COC(N)=N2)C2(CC2)CO3)c1` (single isomer, unassigned) [RP 52a, 6′-[5-(prop-1-yn-1-yl)pyridin-3-yl]dispiro[cyclopropane-1,3′-chromene-4′,4″-[1,3]oxazol]-2″-amine] as the molecule, how does the pIC50 read?
Answer: 7.12

Question: How did the pIC50 turn out when `CC1(C)Oc2ccc(NC(=O)c3ccc(Cl)cn3)cc2[C@@]2(COC(N)=N2)C12COC2` [Example 218, N-[(4S)-2-amino-2′,2′-dimethyldispiro[1,3-oxazole-4,4′-chromene-3′,3″-oxetan]-6′-yl]-5-chloropyridine-2-carboxamide] was run?
Answer: 9.11

Question: How did the pIC50 turn out when `CC1(C)Oc2ccc(NC(=O)c3ccc(Br)cn3)cc2[C@@]2(COC(N)=N2)C12COC2` [Example 219] was run?
Answer: 8.66

Question: How did the pIC50 turn out when `CC1(C)Oc2ccc(NC(=O)c3ccc(Cl)cn3)cc2[C@@]2(COC(N)=N2)C12CC2` [Example 221] was run?
Answer: 9.80

Question: With `CC1(C)Oc2ccc(NC(=O)c3ccc(F)cn3)cc2[C@@]2(COC(N)=N2)C12CC2` [Example 222] as the molecule, how does the pIC50 read?
Answer: 9.21

Question: How did the pIC50 turn out when `COc1cnc(C(=O)Nc2ccc3c(c2)[C@@]2(COC(N)=N2)C2(CC2)C(C)(C)O3)cn1` [Example 223, N-[(4′R)-2″-amino-2′,2′-dimethyldispiro[cyclopropane-1,3′-chromene-4′,4″-[1,3]oxazol]-6′-yl]-5-me thoxypyrazine-2-carboxamide] was run?
Answer: 8.51

Question: How did the pIC50 turn out when `CC1(C)Oc2ccc(NC(=O)c3cnc(C(F)F)cn3)cc2[C@@]2(COC(N)=N2)C12CC2` [Example 224, N-[(4′R)-2″-amino-2′,2′-dimethyldispiro[cyclopropane-1,3′-chromene-4′,4″-[1,3]oxazol]-6′-yl]-5-(difluoromethyl)pyrazine-2-carboxamide] was run?
Answer: 9.20

Question: `COCc1cnn(-c2ccc3c(c2)C2(COC(N)=N2)C2(COC2)C2(CCC2)O3)c1` (stereo not drawn) [RP 4] was tested. Which pIC50 did it give?
Answer: 5.14

Question: `NC1=NC2(CO1)c1cc(-c3cncnc3)ccc1OC1(CCC1)C21COC1` (stereo not drawn) [RP 5] was tested. Which pIC50 did it give?
Answer: 6.23

Question: With `CC1(C)Oc2ccc(Br)cc2C2(COC(N)=N2)C12COC2` (stereo not drawn) [RP 6, 6′-bromo-2′,2′-dimethyldispiro[1,3-oxazole-4,4′-chromene-3′,3″-oxetan]-2-amine] as the molecule, how does the pIC50 read?
Answer: 5.41

Question: With `NC1=NC2(CO1)c1cc(Br)ccc1OC(CC1CC1)C21COC1` (stereo not drawn) [RP 16b] as the molecule, how does the pIC50 read?
Answer: 5.32

Question: How did the pIC50 turn out when `COCC#Cc1cncc(-c2ccc3c(c2)C2(COC(N)=N2)C2(COC2)CO3)c1` (stereo not drawn) [RP 19, 6′-[5-(3-methoxyprop-1-yn-1-yl)pyridin-3-yl]dispiro[1,3-oxazole-4,4′-chromene-3′,3″-oxetan]-2-amine] was run?
Answer: 6.37

Question: `CC#Cc1cc(-c2ccc3c(c2)C2(COC(N)=N2)C2(COC2)CO3)ccn1` (stereo not drawn) [RP 20] was tested. Which pIC50 did it give?
Answer: 6.24

Question: How did the pIC50 turn out when `CC#Cc1cc(-c2ccc3c(c2)C2(COC(N)=N2)C2(COC2)CO3)ncn1` (stereo not drawn) [RP 21] was run?
Answer: 6.39

Question: With `CC#Cc1cncc(-c2ccc3c(c2)C2(COC(N)=N2)C2(COC2)CO3)n1` (stereo not drawn) [RP 22] as the molecule, how does the pIC50 read?
Answer: 5.54

Question: How did the pIC50 turn out when `C#Cc1cncc(-c2ccc3c(c2)C2(COC(N)=N2)C2(COC2)CO3)c1` (stereo not drawn) [RP 23] was run?
Answer: 6.05

Question: How did the pIC50 turn out when `COc1cccnc1Nc1ccc2c(c1)C1(COC(N)=N1)C1(COC1)CO2` (stereo not drawn) [RP 26] was run?
Answer: 7.16

Question: With `NC1=NC2(CO1)c1cc(NC(=O)c3ccc(F)cn3)ccc1OCC21CC1` (stereo not drawn) [RP 31, N-(2″-aminodispiro[cyclopropane-1,3′-chromene-4′,4″-[1,3]oxazol]-6′-yl)-5-fluoropyridine-2-carboxamide] as the molecule, how does the pIC50 read?
Answer: 7.21

Question: How did the pIC50 turn out when `COc1ccc(F)c(-c2ccc3c(c2)C2(COC(N)=N2)C2(COC2)CO3)c1` (stereo not drawn) [RP 33] was run?
Answer: 6.02

Question: With `NC1=NC2(CO1)c1cc(-c3cc(Cl)cnc3F)ccc1OCC21COC1` (stereo not drawn) [RP 34] as the molecule, how does the pIC50 read?
Answer: 6.59

Question: With `NC1=NC2(CO1)c1cc(-c3cncnc3)ccc1OCC21COC1` (stereo not drawn) [RP 36] as the molecule, how does the pIC50 read?
Answer: 6.09

Question: `NC1=NC2(CS1)c1cc(Br)ccc1OCC21COC1` (stereo not drawn) [RP 41, 6′-bromodispiro[oxetane-3,3′-chromene-4′,4″-[1,3]thiazol]-2″-amine] was tested. Which pIC50 did it give?
Answer: < 4.52

Question: With `CC1(C)Oc2ccc(Br)cc2C2(CSC(N)=N2)C12COC2` (stereo not drawn) [RP 42] as the molecule, how does the pIC50 read?
Answer: 5.23

Question: How did the pIC50 turn out when `NC1=NC2(CO1)c1cc(Nc3ncccc3Cl)ccc1OCC21COC1` (stereo not drawn) [RP 43, 6′-(3-chloropyridin-2-yl)aminodispiro[1,3-oxazole-4,4′-chromene-3′,3″-oxetane]-2-amine] was run?
Answer: 5.85

Question: How did the pIC50 turn out when `NC1=NC2(CO1)c1cc(Nc3ncccc3Cl)ccc1OC1(CCC1)C21COC1` (stereo not drawn) [RP 44] was run?
Answer: 7.01

Question: `COc1cccnc1Nc1ccc2c(c1)C1(COC(N)=N1)C1(COC1)C1(CCC1)O2` (stereo not drawn) [RP 45] was tested. Which pIC50 did it give?
Answer: 7.24

Question: How did the pIC50 turn out when `CC(C)Cc1ccc2c(c1)C1(COC(N)=N1)C1(COC1)C1(CCC1)O2` (stereo not drawn) [RP 46, 6′-isobutyltrispiro[cyclobutane-1,2′-chromene-4′,4″-[1,3]oxazole-3′,3′″-oxetan]-2″-amine] was run?
Answer: 5.85

Question: `CCC(CC)Cc1ccc2c(c1)C1(COC(N)=N1)C1(COC1)C1(CCC1)O2` (stereo not drawn) [RP 47] was tested. Which pIC50 did it give?
Answer: 5.85

Question: How did the pIC50 turn out when `NC1=NC2(CO1)c1cc(-c3cncc(C#CC4CC4)c3)ccc1OC1(CCC1)C21COC1` (stereo not drawn) [RP 48, 6′-[5-(cyclopropylethynyl)pyridin-3-yl]trispiro[cyclobutane-1,2′chromene-4′,4″-[1,3]oxazole-3′,3′″-oxetan]-2″-amine] was run?
Answer: 6.16

Question: How did the pIC50 turn out when `CC1(C)Oc2ccc(-c3cncnc3)cc2C2(CSC(N)=N2)C12COC2` (stereo not drawn) [RP 54, 2′,2′-dimethyl-6′-(pyrimidin-5-yl)dispiro[oxetane-3,3′-chromene-4′,4″-[1,3]thiazol]-2″-amine hydrochloride] was run?
Answer: 7.10

Question: `CC#Cc1ccnc(-c2ccc3c(c2)C2(COC(N)=N2)C2(COC2)CO3)c1` (stereo not drawn) [RP 56] was tested. Which pIC50 did it give?
Answer: 6.13

Question: With `NC1=NC2(CO1)c1cc(-c3cncc(OCC(F)(F)F)c3)ccc1OCC21CC1` (stereo not drawn) [RP 58] as the molecule, how does the pIC50 read?
Answer: 6.74

Question: How did the pIC50 turn out when `NC1=NC2(CO1)c1cc(-c3cncc(OCC(F)F)c3)ccc1OCC21CC1` (stereo not drawn) [RP 59] was run?
Answer: 7.12

Question: How did the pIC50 turn out when `NC1=NC2(CO1)c1cc(-c3cncc(OC(F)F)c3)ccc1OCC21CC1` (stereo not drawn) [RP 60] was run?
Answer: 6.80

Question: `NC1=NC2(CO1)c1cc(-c3cnc4[nH]ccc4c3)ccc1OCC21CC1` (stereo not drawn) [RP 61, 6′-(1H-pyrrolo[2,3-b]pyridin-5-yl)dispiro[cyclopropane-1,3′-chromene-4′,4″-[1,3]oxazol]-2″-amine] was tested. Which pIC50 did it give?
Answer: 6.46

Question: How did the pIC50 turn out when `CCc1cncc(-c2ccc3c(c2)C2(COC(N)=N2)C2(CC2)CO3)c1` (stereo not drawn) [RP 63] was run?
Answer: 5.48

Question: How did the pIC50 turn out when `NC1=NC2(CO1)c1cc(-c3cncc(OCC(F)(F)C(F)F)c3)ccc1OCC21CC1` (stereo not drawn) [RP 64] was run?
Answer: 5.64

Question: `COc1ccnc(-c2ccc3c(c2)C2(COC(N)=N2)C2(COC2)C(C)(C)O3)c1` (stereo not drawn) [RP 65, 6′-(4-methoxypyridin-2-yl)-2′,2′-dimethyldispiro[1,3-oxazole-4,4′-chromene-3′,3″-oxetan]-2-amine] was tested. Which pIC50 did it give?
Answer: 7.31
